Literature values as cited in US20230000073A1, “A COMPOSITION FOR ACTIVATING PLANT'S NATURAL DEFENSE MECHANISMS TO EXTEND THE SHELF LIFE AND METHODS THEREOF” (GREENPOD LABS PRIVATE LIMITED, priority 2019, published 2023).
Entries after “also recorded” stand apart in the source; their conditions may differ. Read-outs that look alike come from different tables or passages of the source.

O=C(O)c1ccccc1O [SA, 2-hydroxybenzoic acid]
Reported results (effects of SA) (Apple): Decreased ethylene, LOX activity, MDA content, DI, | Reported results (effects of SA) (Apple; combined with microbial antagonist): Enchaned the biological efficacy of antagonist | Reported results (effects of SA) (Orange): SOD, GR, APX & DHAR activity & ASA/DHASA | Reported results (effects of SA) (Fresh-cut Chestnut): Delayed discoloration, maintained edible quality | Reported results (effects of SA) (Tomato): Development of red color, regulation of ACS genes expression | Reported results (effects of SA) (Watermelon): Increase in GPX, APX, CAT, SOD & GR activity, | Reported results (effects of SA) (Strawberry): Decay, Ripenings, weight loss reduction | Reported results (effects of SA) (Sweet cherry): direct antifungal activity | Reported results (effects of SA) (Kiwifruit): Inhibition of ethylene production, ripening &; also recorded: decay control | Reported results (effects of SA) (Banana): Decrease in fruit softening pulp/peel ratio, reducing sugar content,
